Experimental data: article PMC3288053 (PLoS ONE, 2012)
Read-outs that look alike come from different tables or passages of the source.

Tests used:
[1] = tested on: CHO-K1/GLUT4 cells; assay: Quantification of GLUT4 translocation ratio (IN Cell Analyzer 1000); type: cell-based; details: for EC50: serum-starved cells, read-out: EC50, membrane GLUT4 (GLUT4 translocation)
Description: CHO-K1 cells are transfected with pEGFPN1-GLUT4-myc plasmid using Lipofectamine 2000, and subsequently screened with G418 (800 µg/ml). The CHO-K1/GLUT4 stable cell line is obtained by picking up clones.
CHO-K1/GLUT4 cells are seeded into 96-well plate. After cells reached 100% confluence, F12 medium is changed to 3T3-L1 medium and incubated for 2 days. 8-hour serum starvation later, cells are stimulated with insulin for 5 minutes, fixed with 3.7% formaldehyde for 15 minutes, and labeled with anti-myc monoclonal antibody and secondary antibody (Alexa Fluor 647 conjuncted anti-mouse antibody). Fluorescence pictures were obtained by IN Cell Analyzer 1000 Instrument (GE Healthcare) with the same exposure time. The basic unit comprises several core components including a Nikon microscope and a high-resolution CCD camera. Membrane-located GLUT4 is represented by the intensity of red fluorescence (Alex fluor 647) and normalized by the intensity of green fluorescence (GLUT4-EGFP), which is assigned to the total GLUT4 [46].

[2] = biological target: T1, LAR (Homo sapiens, UniProt P10586); assay: PTP enzyme inhibition assay (pNPP substrate); type: biochemical; details: PTPs 0.3 µM, pNPP 5 mM, 25°C; NI: No inhibition at 100 µM; read-out: IC50 LAR
T1 construct: pGEX2T-LAR1282–1888; GST (N); made in house; host or cells: E. coli BL21 (DE3)
Description: (§1) The enzymatic activities of the recombinant PTPs are measured at 25°C using pNPP as substrate. The initial velocities of enzymatic reactions are determined by continuously measuring the absorbance at 405 nm every 15 s using a microplate spectrophotometer (Bio-Rad). […] To determine the inhibition type, each concentration of Rut (0, 50 and 75 µM) is incubated with PTP1B (0.3 µM) in reaction buffer (50 mM HEPES, pH7.0, 1 mM EDTA, and 100 mM NaCl) for 10 min and the reactions are initiated by different concentrations of pNPP (0.5–10 mM). The inhibition type is determined using double-reciprocal plots. In determination of the selectivity of Rut against PTPs, the result is referred as no inhibition when 100 µM Rut inhibits no enzyme activity. The same reaction systems are designed for all PTPs including PTP1B.

[3] = biological target: T2, PTP1B (Homo sapiens, UniProt P18031); assay: PTP enzyme inhibition assay (pNPP substrate); type: biochemical; details: PTPs 0.3 µM, pNPP 5 mM, 25°C; NI: No inhibition at 100 µM
T2 construct: pGEX4T-1-PTP1B1–321; GST (N); made in house; host or cells: E. coli BL21 (DE3)
T2 sequence (P18031 1-321): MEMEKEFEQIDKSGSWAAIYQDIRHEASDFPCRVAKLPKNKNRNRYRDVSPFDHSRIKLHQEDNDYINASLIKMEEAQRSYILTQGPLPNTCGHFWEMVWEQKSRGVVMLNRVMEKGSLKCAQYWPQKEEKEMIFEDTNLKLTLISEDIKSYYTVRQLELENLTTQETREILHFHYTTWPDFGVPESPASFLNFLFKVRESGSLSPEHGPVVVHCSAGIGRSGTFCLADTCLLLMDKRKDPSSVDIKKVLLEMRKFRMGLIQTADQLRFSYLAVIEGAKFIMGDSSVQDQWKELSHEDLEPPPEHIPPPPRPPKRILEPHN
Description: as §1

[4] = biological target: T3, CD45 (Homo sapiens, UniProt P08575); assay: PTP enzyme inhibition assay (pNPP substrate); type: biochemical; details: PTPs 0.3 µM, pNPP 5 mM, 25°C; NI: No inhibition at 100 µM
T3 construct: pGEX2T-CD45_560–1256; GST (N); made in house; host or cells: E. coli BL21 (DE3)
Description: as §1

[5] = biological target: T4, PTPα (Homo sapiens, UniProt P18433); assay: PTP enzyme inhibition assay (pNPP substrate); type: biochemical; details: PTPs 0.3 µM, pNPP 5 mM, 25°C; NI: No inhibition at 100 µM; read-out: IC50 PTPα
T4 construct: pGEX2T-PTPα182–803; GST (N); made in house; host or cells: E. coli BL21 (DE3)
Description: as §1

[6] = biological target: T5, TC-PTP (Homo sapiens, UniProt P17706); assay: PTP enzyme inhibition assay (pNPP substrate); type: biochemical; details: PTPs 0.3 µM, pNPP 5 mM, 25°C; NI: No inhibition at 100 µM
T5 construct: pGEX4T-1-TC-PTP1–288; GST (N); made in house; host or cells: E. coli BL21 (DE3)
Description: as §1

[7] = tested on: 3T3-L1 adipocytes; assay: 2-Deoxyglucose uptake in 3T3-L1 adipocytes; type: cell-based; details: insulin 17 nM; Rut 5–25 µM, C2 10 µM
Description: 3T3-L1 adipocytes are fully differentiated (the 10th day after MDI stimulation) and seeded into 24-well plate. After incubation with compounds in serum-free medium containing 0.5% BSA for 8 hours, medium is changed to Krebs buffer containing […] insulin and incubated for 30 minutes. In the last 5 minutes, cells are incubated with 2-[^3H]-deoxy-D-glucose. The glucose uptake is stopped by ice-cold PBS, and the cells are then lysed with 0.1% Triton. Finally the radioactivity is calculated by a scintillation counter. Cytochalasin B is used to measure nonspecific uptake, and the value is subtracted from all the data. Radioactivity is normalized by total protein concentration that is measured by BCA kit.

[8] = biological target: T6, Peroxisome proliferator-activated receptor γ ligand-binding domain PPARγ-LBD(202-477), His-tagged, purified (human, UniProt P37231-2 202-477); assay: SPR; Biacore 3000; purified SRC1(613-773) immobilised on a CM5 chip by amine coupling; different concentrations of PPARγ-LBD or RXRα-LBD injected at 20 µL/min for 60 s, dissociation 120 s; running buffer 10 mM HEPES, 150 mM NaCl, 3 mM EDTA, 0.005% P20, pH 7.4; also 1 µM LBD pre-incubated for 1 h with Rut (16.8-100 µM); details: both partners purified
T6 construct: also called hPPARγ-LBD; source: E. coli BL21 (DE3), purified (His-tag purification, Novagen instructions)
T6 sequence (looked up): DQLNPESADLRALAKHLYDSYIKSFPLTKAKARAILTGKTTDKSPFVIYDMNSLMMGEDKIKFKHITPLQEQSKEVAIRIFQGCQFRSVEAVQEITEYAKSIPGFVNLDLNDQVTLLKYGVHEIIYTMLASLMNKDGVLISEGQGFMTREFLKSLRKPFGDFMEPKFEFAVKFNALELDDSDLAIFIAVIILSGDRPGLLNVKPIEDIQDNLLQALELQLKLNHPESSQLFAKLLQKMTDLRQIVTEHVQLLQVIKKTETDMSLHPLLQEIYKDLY

[9] = biological target: T7, Retinoid X receptor α ligand-binding domain (RXRα-LBD), His-tagged, purified (human, UniProt P19793 229-458); assay: as above; details: both partners purified
T7 construct: also called hRXRα-LBD; source: E. coli BL21 (DE3), purified (His-tag purification, Novagen instructions)
T7 sequence: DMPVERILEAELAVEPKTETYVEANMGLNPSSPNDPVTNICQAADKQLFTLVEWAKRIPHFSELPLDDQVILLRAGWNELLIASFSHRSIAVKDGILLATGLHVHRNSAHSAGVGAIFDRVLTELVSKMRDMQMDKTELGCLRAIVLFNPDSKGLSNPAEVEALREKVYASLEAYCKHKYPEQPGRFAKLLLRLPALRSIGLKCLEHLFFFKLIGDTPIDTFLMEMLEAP

T1 sequence (P10586 1301-1907 limits assumed): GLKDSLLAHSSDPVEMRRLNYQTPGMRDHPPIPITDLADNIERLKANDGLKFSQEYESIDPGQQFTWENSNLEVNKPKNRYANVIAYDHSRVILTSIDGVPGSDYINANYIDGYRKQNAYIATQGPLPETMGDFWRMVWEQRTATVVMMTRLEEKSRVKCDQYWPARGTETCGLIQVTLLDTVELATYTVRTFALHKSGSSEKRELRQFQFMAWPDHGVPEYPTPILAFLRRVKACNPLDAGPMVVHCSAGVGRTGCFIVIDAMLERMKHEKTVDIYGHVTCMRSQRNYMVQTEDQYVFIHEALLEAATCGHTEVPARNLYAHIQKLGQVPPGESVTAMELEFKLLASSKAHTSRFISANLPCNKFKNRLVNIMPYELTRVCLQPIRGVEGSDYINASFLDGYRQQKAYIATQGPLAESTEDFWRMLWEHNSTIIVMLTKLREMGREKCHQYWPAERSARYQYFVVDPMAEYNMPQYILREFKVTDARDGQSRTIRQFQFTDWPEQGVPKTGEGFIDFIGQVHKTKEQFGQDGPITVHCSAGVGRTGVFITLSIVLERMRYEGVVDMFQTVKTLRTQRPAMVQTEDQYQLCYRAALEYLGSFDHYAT
T3 sequence (P08575 610-1306 limits assumed): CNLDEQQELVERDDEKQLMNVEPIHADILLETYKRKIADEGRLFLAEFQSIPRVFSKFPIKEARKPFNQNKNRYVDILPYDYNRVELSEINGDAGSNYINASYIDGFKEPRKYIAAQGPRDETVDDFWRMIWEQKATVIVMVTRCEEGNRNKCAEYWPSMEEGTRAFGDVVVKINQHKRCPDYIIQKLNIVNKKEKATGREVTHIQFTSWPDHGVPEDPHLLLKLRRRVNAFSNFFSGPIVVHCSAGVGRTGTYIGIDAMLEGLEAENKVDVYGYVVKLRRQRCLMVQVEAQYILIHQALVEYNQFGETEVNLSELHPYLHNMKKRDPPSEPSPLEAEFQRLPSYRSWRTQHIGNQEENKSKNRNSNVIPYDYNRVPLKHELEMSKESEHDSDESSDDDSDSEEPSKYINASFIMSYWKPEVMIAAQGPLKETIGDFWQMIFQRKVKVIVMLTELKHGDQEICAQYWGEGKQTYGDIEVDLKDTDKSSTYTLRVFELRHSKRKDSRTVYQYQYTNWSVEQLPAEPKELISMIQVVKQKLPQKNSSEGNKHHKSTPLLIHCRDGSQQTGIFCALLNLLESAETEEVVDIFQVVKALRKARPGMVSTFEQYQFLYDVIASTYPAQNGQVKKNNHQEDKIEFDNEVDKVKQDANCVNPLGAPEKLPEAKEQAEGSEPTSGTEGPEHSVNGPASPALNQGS
T5 sequence (P17706 1-288): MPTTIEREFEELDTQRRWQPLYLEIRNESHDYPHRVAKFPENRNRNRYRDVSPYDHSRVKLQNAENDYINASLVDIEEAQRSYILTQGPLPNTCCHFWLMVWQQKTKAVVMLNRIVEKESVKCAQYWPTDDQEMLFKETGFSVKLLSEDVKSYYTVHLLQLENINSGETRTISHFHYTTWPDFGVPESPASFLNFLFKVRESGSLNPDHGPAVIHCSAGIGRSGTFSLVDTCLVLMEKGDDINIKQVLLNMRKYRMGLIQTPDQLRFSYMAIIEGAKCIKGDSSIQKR

COC[C@H]1OC(=O)c2coc3c2[C@@]1(C)C1=C(C3=O)[C@@H]2CCC(=O)[C@@]2(C)C[C@H]1OC(C)=O [wortmannin, reference compound] was tested, and the “effect on Rut or insulin-stimulated GLUT4 translocation” value ([1]; wortmannin 1 µM, Rut 20 µM or insulin 170 nM) was “completely inhibits”.

For “insulin: insulin used as stimulus in cellular GLUT4 translocation assay”, the “insulin-stimulated GLUT4 translocation over the basal” value ([1]; IN Cell 1000 analyzer based system) was “around 1.5 fold” and the EC50 ([1]; insulin 5 min) was 100 nM.

Work on pervanadate [reference compound] yielded an EC50 ([1]; pervanadate 30 min) of 51000 nM, an IC50 [2] of 26 nM and an IC50 [3] of 15 nM. It also gave an IC50 [4] of 6 nM, an IC50 [5] of 59 nM and an IC50 [6] of 36 nM. The insulin-induced glucose uptake [7] was “increase the insulin-stimulated glucose uptake”.

B1: Steroid receptor coinducer-1 fragment SRC1(613-773), His-tagged, purified (domain or fragment, human, UniProt Q15788 613-773, looked up)
chain: LHNNDRLSDGDSKYSQTSHKLVQLLTTTAEQQLRHADIDTSCKDVLSCTGTSNSASANSSGGSCPSSHSSLTERHKILHRLLQEGSPSDITTLSVEPDKKDSASTSVSVTGQVQGNSSIKLELDASKKKESKDHQLLRYLLDKDEKDLRSTPNLSLDDVKV
notes: plasmid pET15b-SRC1(613-773); Human cDNA is stated as template for the two-hybrid SRC1(613-773) clone; source: E. coli BL21 (DE3), purified (His-tag purification, Novagen instructions)
For B1, the binding result [8] was “binds” and the Kd [9] was 1160 nM.
